Source: patent publication US12202805B2, “Process for preparing (5S)-{[2-(4-carboxyphenyl)ethyl] |2-(2-{|3-chloro-4'-(trifluoromethyl)biphenyl-4-yl]methoxy}phenyl)ethyl]aminol-5,6,7,8-tetrahydroquinoline-2-carboxylic acid and its crystalline forms for use as pharmaceutically active compound” (Bayer Aktiengesellschaft, priority 2021, dated 2025)
Where “and” joins values, the source holds several entries; their conditions need not be identical. Equal entries are not always repeated.

Tested on: thromboxane A2 challenged PAH-minipig
Assay: Haemodynamics in the anesthetized thromboxane challenged minipig, intratracheal dry powder (PAP, BP)
Assay type: in vivo, Göttingen Minipigs
Settings: 375 μg/kg i.t.
Protocol: Healthy Göttingen Minipigs® Ellegaard (Ellegaard, Denmark) of both sexes and having a weight of 2-6 kg were used. The animals were sedated by i.m. administration of about 25 mg/kg ketamine and about 10 mg/kg azaperone. Anaesthesia was initiated by i.v. administration of about 2 mg/kg ketamine and about 0.3 mg/kg midazolam. Maintenance of anaesthesia was by i.v. administration of about 7.5-30 mg/kg/h ketamine and about 1-4 mg/kg/h midazolam (rate of infusion 1-4 ml/kg/h) and about 150 μg/kg/h pancuronium bromide (for example Pancuronium-Actavis). After intubation, the animals were ventilated by the ventilator at a constant respiratory volume (10-12 ml/kg, 35 breaths/min; Avea®, Viasys Healthcare, USA, or Engström Carestation, GE Healthcare, Freiburg, Germany) such that an end-tidal CO2 concentration of about 5% was achieved. Ventilation was performed with room air, enriched with about 40% oxygen (normoxia). For the measurement of the haemodynamic parameters such as pulmonary arterial pressure (PAP), blood pressure (BP) and heart rate (HR), catheters were inserted into the carotid artery to measure the blood pressure, and a Swan-Ganz® catheter was introduced in a flow-directed manner via the jugular vein into the pulmonary artery. The haemodynamic signals were recorded and evaluated by means of pressure transducers (Combitransducer, B. Braun, Melsungen, Germany)/amplifiers and Ponemah® as data acquisition software.
As reference pure Lactose vehicle was applied in the beginning of each experiment.

Q: `O.O=C(O)c1ccc(CCN(CCc2ccccc2OCc2ccc(-c3ccc(C(F)(F)F)cc3)cc2Cl)[C@H]2CCCc3nc(C(=O)O)ccc32)cc1.O=C(O)c1ccc(CCN(CCc2ccccc2OCc2ccc(-c3ccc(C(F)(F)F)cc3)cc2Cl)[C@H]2CCCc3nc(C(=O)O)ccc32)cc1` [example 6a, (5S)—{[2-(4-Carboxyphenyl)ethyl][2-(2-{[3-chloro-4′-(trifluoromethyl)biphenyl-4-yl]methoxy}phenyl)-ethyl]amino}-5,6,7,8-tetrahydroquinoline-2-carboxylic acid semihydrate] was tested. Which “PAP, % changes vs. prevalues” (time 160 min) did it give?
A: The value was 59.9% and 77.1% and 73.1%.

Q: And the “BP (mean)” value (time 170 min)?
A: Its value is 95 mmHg and 79 mmHg.

Q: What about the “BP, % changes vs. prevalues” (time 170 min) of the same compound?
A: Its value is 95.6% and 99.7% and 107.4%.

Q: And the “PAP(mean)” value (time 170 min)?
A: Its value is 24.0 mmHg and 32.4 mmHg and 29.9 mmHg.

Q: And the “PAP, % changes vs. prevalues” (time 170 min)?
A: Its value is 58.6% and 76.7% and 72.3%.

Q: What about the “BP (mean)” value (time 180 min) of the same compound?
A: The value was 94 mmHg and 79 mmHg.

Q: And the “BP, % changes vs. prevalues” (time 180 min)?
A: The value was 94.6% and 99.7% and 106.3%.

Q: And the “PAP(mean)” value (time 180 min)?
A: The value was 23.7 mmHg and 31.9 mmHg and 29.7 mmHg.

Q: What about the “PAP, % changes vs. prevalues” (time 180 min) of the same compound?
A: The value was 58.0% and 75.4% and 71.8%.

Q: And the “BP (mean)” value (time 190 min)?
A: Its value is 94 mmHg and 85 mmHg and 93 mmHg.

Q: What about the “BP, % changes vs. prevalues” (time 190 min) of the same compound?
A: Its value is 94.6% and 108.5% and 105.2%.

Q: And the “PAP(mean)” value (time 190 min)?
A: Its value is 24.4 mmHg and 32.4 mmHg and 29.2 mmHg.

Q: What about the “PAP, % changes vs. prevalues” (time 190 min) of the same compound?
A: The value was 59.5% and 78.4% and 70.7%.

Q: What about the “BP (mean)” value (time 200 min) of the same compound?
A: The value was 92 mmHg and 85 mmHg.

Q: And the “BP, % changes vs. prevalues” (time 200 min)?
A: The value was 92.6% and 107.3% and 104.0%.

Q: And the “PAP(mean)” value (time 200 min)?
A: Its value is 24.8 mmHg and 32.4 mmHg and 29.4 mmHg.

Q: And the “PAP, % changes vs. prevalues” (time 200 min)?
A: The value was 60.5% and 76.8% and 71.1%.

Q: And the “BP (mean)” value (time 210 min)?
A: The value was 90 mmHg and 81 mmHg and 91 mmHg.

Q: And the “BP, % changes vs. prevalues” (time 210 min)?
A: The value was 90.6% and 102.2% and 102.9%.

Q: What about the “PAP(mean)” value (time 210 min) of the same compound?
A: Its value is 24.8 mmHg and 31.9 mmHg and 29.2 mmHg.

Q: And the “PAP, % changes vs. prevalues” (time 210 min)?
A: The value was 60.6% and 75.5% and 70.8%.

Q: And the “BP (mean)” value (time 220 min)?
A: Its value is 89 mmHg and 79 mmHg.

Q: And the “BP, % changes vs. prevalues” (time 220 min)?
A: The value was 89.6% and 99.7% and 100.6%.

Q: And the “PAP(mean)” value (time 220 min)?
A: The value was 24.7 mmHg and 31.7 mmHg and 29.1 mmHg.

Q: What about the “PAP, % changes vs. prevalues” (time 220 min) of the same compound?
A: Its value is 60.3% and 75.1% and 70.3%.

Q: And the “BP (mean)” value (time 230 min)?
A: The value was 87 mmHg and 78 mmHg and 89 mmHg.

Q: And the “BP, % changes vs. prevalues” (time 230 min)?
A: The value was 87.6% and 98.4% and 100.6%.

Q: And the “PAP(mean)” value (time 230 min)?
A: Its value is 24.0 mmHg and 31.3 mmHg and 28.6 mmHg.

Q: And the “PAP, % changes vs. prevalues” (time 230 min)?
A: The value was 58.7% and 74.1% and 69.1%.

Q: What about the “BP (mean)” value (time 240 min) of the same compound?
A: Its value is 87 mmHg and 77 mmHg.

Q: What about the “BP, % changes vs. prevalues” (time 240 min) of the same compound?
A: The value was 87.6% and 97.2% and 98.4%.

Q: And the “PAP(mean)” value (time 240 min)?
A: Its value is 24.1 mmHg and 31.3 mmHg and 28.1 mmHg.

Q: And the “PAP, % changes vs. prevalues” (time 240 min)?
A: Its value is 58.9% and 74.2% and 68.0%.

Q: And the “BP (mean)” value (time 250 min)?
A: Its value is 85 mmHg and 76 mmHg.

Q: What about the “BP, % changes vs. prevalues” (time 250 min) of the same compound?
A: The value was 85.5% and 95.9% and 96.1%.

Q: And the “PAP(mean)” value (time 250 min)?
A: Its value is 24.2 mmHg and 30.7 mmHg and 28.1 mmHg.

Q: And the “PAP, % changes vs. prevalues” (time 250 min)?
A: The value was 59.0% and 72.7% and 67.9%.

Q: What about the “BP (mean)” value (time 260 min) of the same compound?
A: Its value is 85 mmHg and 76 mmHg and 84 mmHg.

Q: What about the “BP, % changes vs. prevalues” (time 260 min) of the same compound?
A: Its value is 85.5% and 95.9% and 95.0%.

Q: What about the “PAP(mean)” value (time 260 min) of the same compound?
A: Its value is 24.1 mmHg and 30.6 mmHg and 28.1 mmHg.

Q: What about the “PAP, % changes vs. prevalues” (time 260 min) of the same compound?
A: Its value is 58.8% and 72.5% and 68.0%.

Q: And the “BP (mean)” value (time 270 min)?
A: Its value is 85 mmHg and 76 mmHg and 87 mmHg.

Q: And the “BP, % changes vs. prevalues” (time 270 min)?
A: Its value is 85.5% and 95.9% and 98.4%.

Q: And the “PAP(mean)” value (time 270 min)?
A: Its value is 24.4 mmHg and 30.6 mmHg and 27.8 mmHg.

Q: And the “PAP, % changes vs. prevalues” (time 270 min)?
A: The value was 59.6% and 72.4% and 67.3%.

Q: What about the “BP (mean)” value (time 280 min) of the same compound?
A: Its value is 85 mmHg and 75 mmHg and 84 mmHg.

Q: What about the “BP, % changes vs. prevalues” (time 280 min) of the same compound?
A: Its value is 85.5% and 94.6% and 95.0%.

Q: What about the “PAP(mean)” value (time 280 min) of the same compound?
A: The value was 24.3 mmHg and 30.7 mmHg and 28.0 mmHg.

Q: What about the “PAP, % changes vs. prevalues” (time 280 min) of the same compound?
A: Its value is 59.3% and 72.6% and 67.8%.

Q: What about the “BP (mean)” value (time 290 min) of the same compound?
A: The value was 84 mmHg and 75 mmHg and 83 mmHg.

Q: And the “BP, % changes vs. prevalues” (time 290 min)?
A: The value was 84.5% and 94.6% and 93.9%.

Q: What about the “PAP(mean)” value (time 290 min) of the same compound?
A: The value was 24.1 mmHg and 30.7 mmHg and 27.6 mmHg.

Q: What about the “PAP, % changes vs. prevalues” (time 290 min) of the same compound?
A: The value was 58.8% and 72.6% and 66.7%.

Q: What about the “BP (mean)” value (time 300 min) of the same compound?
A: Its value is 83 mmHg and 77 mmHg and 82 mmHg.

Q: And the “BP, % changes vs. prevalues” (time 300 min)?
A: Its value is 83.5% and 97.2% and 92.7%.

Q: And the “PAP(mean)” value (time 300 min)?
A: Its value is 23.7 mmHg and 30.5 mmHg and 27.7 mmHg.

Q: What about the “PAP, % changes vs. prevalues” (time 300 min) of the same compound?
A: Its value is 57.9% and 72.2% and 67.1%.
